These are literature values, as cited in paper PMC9353746 (ACS chemical neuroscience, 2021).

The target in this data set is T1, recombinant A1 adenosine receptor (human) (Homo sapiens, UniProt P30542).
T1 sequence (P30542 1-326): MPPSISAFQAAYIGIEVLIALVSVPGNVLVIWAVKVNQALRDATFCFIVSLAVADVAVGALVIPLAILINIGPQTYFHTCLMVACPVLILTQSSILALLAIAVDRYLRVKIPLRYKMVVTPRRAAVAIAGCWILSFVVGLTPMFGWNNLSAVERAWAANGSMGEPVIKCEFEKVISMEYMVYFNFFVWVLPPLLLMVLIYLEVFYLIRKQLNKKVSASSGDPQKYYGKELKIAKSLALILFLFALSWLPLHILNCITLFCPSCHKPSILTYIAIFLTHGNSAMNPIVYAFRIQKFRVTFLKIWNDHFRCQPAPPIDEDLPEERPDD
Particulars: read-out: Ki, A1R.

pKi: −log10 of the molar value.

A word on the pKi: it is −log10 of the Ki, conventionally taken in molar units. `COc1cccc(-c2c(C#N)c(N)nc(SCc3cccc(C)n3)c2C#N)c1` [[^11C]MMPD, 2-amino-4-(3-(methoxy-^11C)phenyl)-6-(((6-methylpyridin-2-yl)methyl)thio)pyridine-3,5-dicarbonitrile]: the pKi is 9.31.
